From PubChem BioAssay AID489041 (Sanford-Burnham Center for Chemical Genomics, 2010)
pIC50: −log10 of the molar value. Active and inactive are the calls of the source. No rule for the calls is given here.

What follows are compounds tested on HEK-293T NF-kB luciferase reporter counterscreen, luminescence (assay: inhibitors of HEK-293T NF-kB luciferase – HEK-293T cells, luminescence, counter-screen for T-cell antigen receptor NF-kB inhibitors, dose response (AID 489041)).
In the case of `Cc1ccc2nc(SCC(=O)Nc3cc(C(F)(F)F)ccc3N3CCOCC3)[nH]c2c1`, the IC50 was 25.6 µM (inactive). Compound `CC1CC(C)CN(S(=O)(=O)c2ccc(NC(=O)c3ccc(=O)[nH]c3)cc2)C1` (centres undefined) has a pIC50 of 4.90. Work on `Cc1ccc(S(=O)(=O)Nc2ccccc2-c2ccccc2)cc1` yielded a pIC50 of 5.05. In the case of `CCCCCCCCCCCCCCCC[n+]1cccc(C(=O)N(CC)CC)c1`, the IC50 was 20.9 µM (inactive). With `COc1ccc(C(=O)c2ccc(N(C)C)cc2)c(OC)c1` the IC50 was 71.1 µM (inactive). `O=C(Nc1ccc(CSc2ccccc2)cc1)c1ccc(CN2CCOCC2)cc1` was tested, and the pIC50 was 6.47. `CC(C)c1ccc(/C=N/Nc2ccc(C(=O)O)cc2)cc1` gave a pIC50 of 5.36. With `C[C@@H]1O[C@@H](O[C@H]2C[C@@H](O)[C@]3(CO)[C@H]4[C@H](O)C[C@]5(C)[C@@H](C6COC(=O)C6)CC[C@]5(O)[C@@H]4CC[C@]3(O)C2)[C@H](O)[C@H](O)[C@H]1O` (some centres undefined) the pIC50 was 6.06. With `O=[N+]([O-])c1ccc(Sc2ccc(Cl)c(Cl)c2)nc1` the IC50 was 64 µM (inactive). For `CCOC(=O)/C=C/S(=O)(=O)c1ccc(NC(C)=O)cc1`, the IC50 was 20.1 µM (inactive). `COc1cc(NCCCCCCCN)c2ncccc2c1` was tested, and the pIC50 was 4.93. In the case of `COc1cccc(/C=N/Nc2ccc(C(=O)O)cc2)c1O`, the pIC50 was 6.39. `COc1ccc(NC(=O)C(=O)NCC2CCCN2S(=O)(=O)c2ccc(C)cc2)cc1` (centres undefined) showed a pIC50 of 6.16. `CCOc1ccc(S(=O)(=O)NCc2ccccn2)cc1NC(=O)c1ccccc1F` was tested, and the IC50 was > 80 µM (inactive). With `Cc1ccc2cccc(NS(=O)(=O)c3ccccc3)c2n1` the IC50 was > 80 µM (inactive). Work on `C=C(C)[C@@]12OC3(c4ccccc4)O[C@@H]1C1[C@@H]4O[C@]4(CO)[C@@H](O)[C@]4(O)C(=O)C(C)=C[C@H]4[C@@]1(O3)[C@H](C)[C@H]2OC(=O)/C=C/C=C/c1ccccc1` (some centres undefined) yielded a pIC50 of over 6.80. With `CC(C)(C)c1csc(Sc2ccc([N+](=O)[O-])cn2)n1` the IC50 was 36.1 µM (inactive). With `O=C(Nc1nc(-c2ccccc2)cs1)c1ccc(N2CCOCC2)c([N+](=O)[O-])c1` the pIC50 was 5.96. `CCCCC(=O)NC(c1ccc(N(CC)CC)cc1)c1ccc2cccnc2c1O` (centres undefined) was tested, and the IC50 was > 80 µM (inactive). In the case of `CCN1C=CC(=C2C(=O)c3ccccc3C2=O)C=C1`, the pIC50 was 6.04. For `COc1cc(C(=O)OCCc2cc3ccccc3c(=O)o2)cc(OC)c1OC`, the pIC50 was 4.83. With `COC(=O)C(Cc1ccc(N(CCCl)CCCl)cc1)N=Cc1ccccc1O` (centres undefined) the IC50 was 43.4 µM (inactive). `COc1ccc(CNS(=O)(=O)c2cc(-c3cc(C)no3)ccc2C(C)C)cc1` showed a pIC50 of 4.96. In the case of `O=C(/C=C/c1cccc([N+](=O)[O-])c1)n1cnc2ccccc21`, the IC50 was 51.3 µM (inactive). For `O=C1CC(c2cc(Br)ccc2F)c2cc3c(cc2N1)CCC3` (centres undefined), the IC50 was > 80 µM (inactive). Compound `CC(=O)c1ccc(Oc2cc(C)nc(-n3nc(C)cc3C)n2)cc1` has a pIC50 of 4.84. With `CCOC(=O)C1CCN(S(=O)(=O)c2c(Cl)ccc3nonc23)CC1` the pIC50 was 4.97. `COc1ccc2nc(C)cc(N/N=C/c3ccc(F)cc3)c2c1` was tested, and the IC50 was 22.4 µM (inactive). Work on `CCCOc1ccccc1C1CC(=O)Nc2cc3c(cc21)OCO3` (centres undefined) yielded a pIC50 of 5.65. In the case of `CCN(CC)c1ccc(/C=C/c2ccc3ccc(OC)cc3[n+]2CC)cc1`, the pIC50 was 6.14. With `C[C@@H]1O[C@@H](O[C@H]2C[C@@H](O)[C@]3(CO)[C@@H]4C(CC[C@]3(O)C2)[C@@]2(O)CC[C@H](C3COC(=O)C3)[C@@]2(C)C[C@H]4O)[C@H](O)[C@H](O)[C@H]1O` (some centres undefined) the pIC50 was 6.16. With `CC(=O)Nc1ccc(S(=O)(=O)N2CCSc3ccccc32)cc1` the IC50 was 21.3 µM (inactive). Work on `O=C(Nc1ccncc1)c1ccc(Cl)c(S(=O)(=O)N2CCc3ccccc32)c1` yielded a pIC50 of 5.83. `CCOC(=O)Nc1nc(-c2ccccc2)c(C(=O)c2ccc(Cl)cc2)s1` showed a pIC50 of 5.51. `COC(=O)CCC(=O)NC(=S)Nc1sc(C)c(C)c1C(N)=O` gave a pIC50 of 6.13. With `COc1ccc(OC)c(COC(=O)c2cc([N+](=O)[O-])ccc2N2CCOCC2)c1` the IC50 was 52.4 µM (inactive). In the case of `COC(=O)Nc1ccc(S(=O)(=O)N2CCCc3ccccc32)cc1`, the pIC50 was 4.92. In the case of `COC(=O)c1[nH]c2c(c1C)C(=O)CC(c1cccc(OC)c1)C2` (centres undefined), the pIC50 was 5.59. `NS(=O)(=O)c1ccc(Sc2nc3ccccc3s2)c([N+](=O)[O-])c1` gave a pIC50 of 5.13. `CCCC[C@@H](C)C[C@@H](C)C(=O)N(C)[C@@H](CC(C)C)C(=O)N[C@H](C(=O)N(C)[C@H](C(=O)N1C[C@@H](O)C[C@H]1C(=O)N1C(=O)C=C[C@@H]1C)C(C)C)C(C)OC(C)=O` (some centres undefined) was tested, and the pIC50 was over 6.80. In the case of `O=C(N[C@@H](Cc1ccccc1)C(=O)CCl)OCc1ccccc1`, the pIC50 was 4.80. With `COc1cc(Nc2ccc(C)cc2)c([N+](=O)[O-])nc1[N+](=O)[O-]` the pIC50 was 4.70. In the case of `COc1ccc(-n2cc(-c3ccc(C)cc3)[n+]3c2SCC3)cc1`, the pIC50 was 5.24. With `COc1ccc2c(c1)/C(=C/c1cnc[nH]1)C(=O)N2` the pIC50 was 6.15. For `C=CCn1c(SCc2c(C)noc2C)nc2ccccc2c1=O`, the pIC50 was 5.55. In the case of `CCSc1nc2ccccc2n1C(=O)/C=C\c1ccc(OC)c(OC)c1`, the pIC50 was 4.74. `COc1ccc([N+](=O)[O-])cc1Nc1c2ccccc2nc2ccccc12` showed a pIC50 of 5.86. For `CC(=O)O[C@@]12CO[C@@H]1C[C@@H](O)[C@@]1(C)C(=O)[C@H](O)C3=C(C)[C@@H](OC(=O)[C@H](O)[C@@H](NC(=O)c4ccccc4)c4ccccc4)C[C@@](O)([C@@H](OC(=O)c4ccccc4)C12)C3(C)C` (some centres undefined), the IC50 was > 80 µM (inactive). In the case of `Cc1ccc(NC(=O)c2cc3ccccc3oc2=O)cc1S(=O)(=O)N(C)C`, the pIC50 was over 6.80. With `C/C(=N\NC(=O)c1ccc(Cl)c(Cl)c1)c1ccccn1` the IC50 was > 80 µM (inactive). For `Cc1ccnc2c1ccc1c(C)ccnc12`, the IC50 was > 80 µM (inactive). Compound `Cc1noc(C)c1CSc1nc2ccccc2c(=O)n1-c1ccccc1` has a pIC50 of 5.04. `Cc1ccc(N2C(=O)c3cccc4c(N)ccc(c34)C2=O)c2cccnc12` showed a pIC50 of over 6.80. `CCOc1cccc(-c2nnc3n2N=C(c2cc(OC)ccc2OC)CS3)c1` gave a pIC50 of 5.32. `C=C(C)COc1ccc(-c2[nH]ncc2-c2ccc(OC)c(OC)c2)c(O)c1` showed a pIC50 of 5.30. `Cc1ccc(COC(=O)c2cc([N+](=O)[O-])ccc2N2CCOCC2)cc1` gave a pIC50 of 5.48. With `COc1cc(NS(C)(=O)=O)ccc1Nc1c2ccccc2nc2ccccc12` the IC50 was > 80 µM (inactive). `COc1ccc(OC)c(C2CC(=O)c3c([nH]c(C(=O)OC(C)C)c3C)C2)c1` (centres undefined) was tested, and the pIC50 was 5.64. In the case of `COc1cc(Cn2c(-c3nonc3N)nc3ccccc32)ccc1C`, the pIC50 was 5.97. `CCc1ccc(S(=O)(=O)/N=C2\C=C(Nc3ccc(O)cc3)C(=O)c3ccccc32)cc1` gave a pIC50 of 5.96. With `COc1ccc(C(=O)/C(C#N)=N/Nc2ccc([N+](=O)[O-])cc2)cc1` the pIC50 was 6.49. With `CCCC(=O)Nc1nc2ccc(NC(=O)c3c(F)c(F)c(OC)c(F)c3F)cc2s1` the IC50 was > 80 µM (inactive). Work on `CCc1cc(C(=O)NC2CCCc3c2cnn3-c2cccc(C)c2C)n(C)n1` (centres undefined) yielded a pIC50 of over 6.80. `CCOc1ccc2c(c1)OC(c1ccc(C)cc1)(C(F)(F)F)NC2=O` (centres undefined) showed a pIC50 of 5.25. In the case of `COC(=O)c1ccccc1NC(=O)CSc1nc(-c2ccco2)cc(C(F)(F)F)n1`, the pIC50 was 5.10. `C(=N\Nc1nc2ccccc2s1)/c1ccccn1` was tested, and the pIC50 was 5.84. For `COc1ccccc1C(=O)N(CCC1CCCN1C)c1nc2ccccc2s1` (centres undefined), the pIC50 was 4.73. `Cc1ccc(NC(=O)C2=C(c3ccccc3)S(=O)(=O)CCS2(=O)=O)cc1` showed a pIC50 of 5.06. `CC(=O)O[C@H]1C(=O)[C@@]2(C)C([C@H](OC(=O)c3ccccc3)[C@]3(O)C[C@H](OC(=O)[C@H](O)[C@@H](NC(=O)Cc4ccccc4)c4ccccc4)C(C)=C1C3(C)C)[C@]1(OC(C)=O)CO[C@@H]1C[C@@H]2O` (some centres undefined) was tested, and the IC50 was 45.6 µM (inactive). In the case of `O=C(N/N=C/c1ccccc1Cl)c1[nH]c2ccc(Br)cc2c1-c1ccccc1`, the IC50 was 38.3 µM (inactive). `CCOc1ccccc1NC(=O)Cn1nnc(C(=O)NCc2cccs2)c1N` showed a pIC50 of 5.54. `O=C(N/N=C/c1c(O)ccc2ccccc12)c1cccc(C(F)(F)F)c1` gave a pIC50 of 5.52. With `O=C(Nc1ccc(S(=O)(=O)N2CCCCC2)cc1)c1ccc(CN2CCOCC2)cc1` the pIC50 was 5.40. For `CC[C@@]1(O)C(=O)OCc2c1cc1n(c2=O)Cc2cc3c(CN(C)C)c(O)ccc3nc2-1`, the IC50 was 29.3 µM (inactive). With `Cc1oc2c(c1C(=O)NCc1cccnc1)C(=O)c1ccccc1C2=O` the pIC50 was 5.83. In the case of `CCOC(=O)c1[nH]c(C)c(C(=O)Nc2ccccc2C)c1C`, the IC50 was 67.3 µM (inactive). `CC(Oc1ccc(Cl)cc1Cl)c1nc(-c2ccc(NC(=O)c3ccncc3)cc2)no1` (centres undefined) showed a pIC50 of 5.62. Compound `Cc1cc(C)nc(SCC(=O)Nc2ccnc3ccccc23)n1` has a pIC50 of 5.04. `C[C@]12CC[C@H](O)C[C@H]1CC[C@@H]1[C@@H]2CC[C@]2(C)[C@@H](C3=CC(=O)OC3)CC[C@]12O` gave a pIC50 of over 6.80. For `Cc1ccc(NC(=O)Nc2ccnc(-c3cccnc3)n2)cc1`, the IC50 was > 80 µM (inactive). Compound `COc1cc(-c2noc(C)c2-c2ccc3[nH]ccc3c2)cc(OC)c1OC` has a pIC50 of 5.61. In the case of `CCCCC(=O)NC(c1ccc(Cl)cc1)c1ccc2cccnc2c1O` (centres undefined), the IC50 was > 80 µM (inactive). Work on `Cc1cc(C)c(S(=O)(=O)Nc2ccc3c4c(cccc24)CC3)c(C)c1` yielded a pIC50 of 5.76. `COc1cc(C2C3=C(Nc4ncnn42)c2ccccc2CC3)cc(OC)c1OC` (centres undefined) gave a pIC50 of 6.08. Work on `CC(=O)c1ccc(N2CCN(S(=O)(=O)c3ccc4c(c3)CC(C)N4C(=O)C3CC3)CC2)cc1` (centres undefined) yielded a pIC50 of 5.51. `COc1ccc(/C=C2/C(=O)OCc3cc(OC)c(OC)cc32)cc1` was tested, and the pIC50 was 4.92. `COc1ccc(C)c(Cn2c(-c3nonc3N)nc3ccccc32)c1` showed a pIC50 of 5.74. Compound `Cc1nc2c(=O)n(C)c(=O)nc-2n(C)n1` has a pIC50 of 5.73. In the case of `Cc1ccc(-c2cc3c(N=O)c4ccccc4c-3n[nH]2)cc1`, the pIC50 was 6.06. Compound `CCOC(=O)COc1cccc2c(=O)n(CC(=O)NCc3ccc(F)cc3)ccc12` has a pIC50 of over 6.80. `CSC1=NC(C(Cl)(Cl)Cl)N=C(c2ccc(C)cc2)N1` (centres undefined) was tested, and the pIC50 was 4.90. Work on `Cc1sc2ncnc(NC3CCN(Cc4ccccc4)CC3)c2c1C` yielded a pIC50 of 5.62. Compound `Cc1ccc2nc(C)c(CN3CCN(c4ccc([N+](=O)[O-])cc4Cl)CC3)n2c1` has a pIC50 of 5.17. With `COc1ccc(OCC(=O)Nc2ccccc2N2CCCCC2)cc1` the pIC50 was 4.92. In the case of `COc1ccc(C)cc1NS(=O)(=O)c1ccc(-c2cnc(C3CC3)o2)cc1`, the pIC50 was 6.08. For `CCOCCCNC(=O)c1cc2c(=O)n3cccc(C)c3nc2n1C`, the IC50 was > 80 µM (inactive). With `O=C(COc1ccc(C(=O)c2ccccc2)cc1)NCc1ccc(F)cc1` the pIC50 was 5.20. In the case of `CCCC(=O)Nc1nc2ccc(S(=O)(=O)N3CCCCC3)cc2s1`, the pIC50 was 5.45. `Clc1ccc(CSc2nncn2-c2ccc3c(c2)OCCO3)cc1` was tested, and the pIC50 was 4.86.
